The target in test [1] is T1, ERBB4-PIK3R1 (Homo sapiens, UniProt Q15303).
T1 construct: human full‐length ERBB4‐Cyt1 was fused to the NTEV fragment; expressed in transfected cells; host or cells: PC12 Tet-Off cells (rat)
The experiment in a line: ERBB4-PIK3R1 split TEV single-culture dose-response assay, EGFld as stimulus. The settings on record: for inhibitory effect in the ERBB4-PIK3R1 single-culture assay: PC12 cells, 10 ng/ml EGFld as stimulus. Format: cell-based. The source says:
For our HTS‐compatible split TEV assay approach, human full‐length ERBB4‐Cyt1 was fused to the NTEV fragment, a TEV protease cleavage site (tevS) and the artificial co‐transcriptional activator Gal4‐VP16 (ERBB4‐NTEV‐tevS‐GV); human PIK3R1 was fused to the CTEV fragment (PIK3R1‐CTEV) (Fig 1A). Upon ERBB4 activation, PIK3R1 is recruited to the receptor resulting in a reconstituted protease activity that cleaves off GV. In turn, released GV translocates to the nucleus and binds to upstream activating sequences (UAS) to activate the transcription of a firefly luciferase reporter gene (Fig 1A). A constitutively expressed Renilla luciferase driven under the control of the human thymidine kinase (TK) promoter was used as control to address off‐target effects related to toxicity.
For one 96‐well plate, 4 × 10^6 PC12 cells were harvested and diluted in 5 ml assay medium (phenol red‐free DMEM (low glucose, Life Technologies), 10% FCS, 5% HS, no antibiotics). The split TEV assay plasmids (2 μg pcDNA3_ERBB4‐NTEV‐tevS‐GV‐2xHA, 2 μg pTag4C_PIK3R1‐CTEV‐2xHA, 2 μg p5xUAS_firefly luciferase, 2 μg pTK_Renilla luciferase, and 0.5 μg pECFP‐C1 for examining transfection efficiency) were diluted in 2.5 ml Opti‐MEM (Life Technologies) and vortexed. In parallel, 20 μl of the transfection reagent Lipofectamine 2000 was diluted in 2.5 ml Opti‐MEM and vortexed.

In test [2] the target is ERBB4 (Homo sapiens, UniProt Q15303). In words: Western blot of ERBB4 phosphorylation in T-47D cells. The settings on record: 10 ng/ml EGFld, 10 μM compound, 5 min.
Sequence of ERBB4 (Q15303 26-1308): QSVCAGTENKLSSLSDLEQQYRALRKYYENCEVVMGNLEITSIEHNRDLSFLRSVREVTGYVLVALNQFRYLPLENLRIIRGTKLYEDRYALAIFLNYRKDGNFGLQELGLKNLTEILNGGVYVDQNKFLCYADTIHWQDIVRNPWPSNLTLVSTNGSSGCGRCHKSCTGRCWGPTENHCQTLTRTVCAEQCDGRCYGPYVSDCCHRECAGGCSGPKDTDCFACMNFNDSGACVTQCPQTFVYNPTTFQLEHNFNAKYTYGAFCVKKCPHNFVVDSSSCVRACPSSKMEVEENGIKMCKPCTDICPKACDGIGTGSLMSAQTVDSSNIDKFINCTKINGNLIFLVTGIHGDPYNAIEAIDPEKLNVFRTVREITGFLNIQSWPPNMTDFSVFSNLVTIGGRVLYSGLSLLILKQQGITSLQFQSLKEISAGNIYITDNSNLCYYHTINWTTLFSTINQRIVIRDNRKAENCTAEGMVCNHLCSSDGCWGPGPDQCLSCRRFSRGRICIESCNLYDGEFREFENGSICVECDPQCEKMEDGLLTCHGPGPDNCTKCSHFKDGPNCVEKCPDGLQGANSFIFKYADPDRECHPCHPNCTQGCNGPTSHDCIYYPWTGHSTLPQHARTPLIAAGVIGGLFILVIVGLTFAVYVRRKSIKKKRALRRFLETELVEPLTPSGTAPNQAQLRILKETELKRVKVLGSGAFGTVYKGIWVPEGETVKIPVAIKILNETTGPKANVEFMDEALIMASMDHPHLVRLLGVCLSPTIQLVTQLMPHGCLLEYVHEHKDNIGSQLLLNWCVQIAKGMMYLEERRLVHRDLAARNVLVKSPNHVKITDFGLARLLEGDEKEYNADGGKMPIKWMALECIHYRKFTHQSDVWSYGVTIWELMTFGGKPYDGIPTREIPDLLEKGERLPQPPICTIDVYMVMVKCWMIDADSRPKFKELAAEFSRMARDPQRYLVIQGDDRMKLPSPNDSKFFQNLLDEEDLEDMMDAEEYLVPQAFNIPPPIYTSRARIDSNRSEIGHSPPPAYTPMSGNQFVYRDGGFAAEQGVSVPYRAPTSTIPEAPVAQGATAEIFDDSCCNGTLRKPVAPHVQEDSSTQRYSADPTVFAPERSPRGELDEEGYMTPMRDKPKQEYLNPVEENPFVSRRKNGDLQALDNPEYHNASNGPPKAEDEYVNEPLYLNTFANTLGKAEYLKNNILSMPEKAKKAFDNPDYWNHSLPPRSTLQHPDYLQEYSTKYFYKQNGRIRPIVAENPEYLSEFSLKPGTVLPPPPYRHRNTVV
The subject of test [3] is pyramidal neurons of the prefrontal cortex. In words: Evoked inhibitory postsynaptic currents (eIPSCs) in acute prefrontal cortex slices. Type of test: cell-based, mouse. The note with it: 5 μM. The procedure: 300‐μm‐thick transverse slices comprising the medial prefrontal cortex (mPFC) area were prepared from 7‐ to 8‐week‐old C57Bl/6 mice as described previously (Teng et al, 2013; Agarwal et al, 2014). All recordings were performed in cortical layer V projection neurons. The bath solution consisted of oxygenated artificial cerebrospinal fluid (ACSF) containing NaCl 126 mM, KCl 3 mM, NaH2PO4 1.25 mM, MgSO4 1 mM, NaHCO3 26 mM, CaCl2 2 mM, glucose 10 mM, and the pH 7.2 adjusted with NaOH. Spontaneous GABAergic inhibitory postsynaptic currents (sIPSC) and evoked GABAergic inhibitory postsynaptic currents (eIPSC) were recorded at a holding potential of −70 mV in the presence of 6‐cyano‐7‐nitroquinoxaline‐2,3‐dione (CNQX, 10 μM) and DL‐2‐amino‐5‐phosphonovaleric acid (D‐APV, 50 μM). Glass pipettes were filled with the solution containing: KCl 140 mM, MgCl2 2 mM, CaCl2 1 mM, Na2GTP 0.5 mM, Na2ATP 4 mM, EGTA 10 mM, HEPES 10 mM. Patches with a series resistance of > 25 MΩ, a membrane resistance of < 0.8 GΩ, or leak currents of > 150 pA were excluded. Biphasic rectangular electric pulses (10 ms, 100–300 μA) were applied to layer I of the prelimbic area of mPFC through another glass pipette filled with ACSF. Synaptic currents were acquired at 20 kHz and filtered at 6 kHz, with a Digidata 1440 ADC‐converter coupled to a Multiclamp 700B amplifier (Molecular Devices, USA). […]

Test [4] shares this test system. In words: Spontaneous inhibitory postsynaptic currents (sIPSCs) in acute prefrontal cortex slices. Type of test: cell-based, mouse. The settings on record: 10 μM, bath application. The procedure:
300‐μm‐thick transverse slices comprising the medial prefrontal cortex (mPFC) area were prepared from 7‐ to 8‐week‐old C57Bl/6 mice as described previously (Teng et al, 2013; Agarwal et al, 2014). All recordings were performed in cortical layer V projection neurons. The bath solution consisted of oxygenated artificial cerebrospinal fluid (ACSF) containing NaCl 126 mM, KCl 3 mM, NaH2PO4 1.25 mM, MgSO4 1 mM, NaHCO3 26 mM, CaCl2 2 mM, glucose 10 mM, and the pH 7.2 adjusted with NaOH. Spontaneous GABAergic inhibitory postsynaptic currents (sIPSC) and evoked GABAergic inhibitory postsynaptic currents (eIPSC) were recorded at a holding potential of −70 mV in the presence of 6‐cyano‐7‐nitroquinoxaline‐2,3‐dione (CNQX, 10 μM) and DL‐2‐amino‐5‐phosphonovaleric acid (D‐APV, 50 μM). Glass pipettes were filled with the solution containing: KCl 140 mM, MgCl2 2 mM, CaCl2 1 mM, Na2GTP 0.5 mM, Na2ATP 4 mM, EGTA 10 mM, HEPES 10 mM. Patches with a series resistance of > 25 MΩ, a membrane resistance of < 0.8 GΩ, or leak currents of > 150 pA were excluded. Biphasic rectangular electric pulses (10 ms, 100–300 μA) were applied to layer I of the prelimbic area of mPFC through another glass pipette filled with ACSF. Synaptic currents were acquired at 20 kHz and filtered at 6 kHz, with a Digidata 1440 ADC‐converter coupled to a Multiclamp 700B amplifier (Molecular Devices, USA). Data acquisition was performed using pClamp10 software (Molecular Devices). MiniAnalysis 6.0.9 (Synaptosoft Inc., Decatur, USA) and pClamp10.1 were used for amplitude and frequency analysis of sIPSCs and eIPSCs, respectively. Paired Student's t‐test was used for statistical analysis.

Consider 5 molecules from article PMC5653977 (EMBO Molecular Medicine, 2017).

T1 sequence (Q15303 26-1308): as above

Turning to `CS[C@@H]1CC2=CC(=O)CC[C@]2(C)C2CC[C@@]3(C)C(CCC34CCC(=O)O4)C21` (some centres unmarked), the “inhibitory effect in the ERBB4-PIK3R1 single-culture assay” value (“inhibitory effect” for short) in test [1] is on record as “None of these compounds showed an inhibitory effect”.
Take “EGFld: soluble biologically active EGF-like domain of NRG1, used as Nrg1 stimulus (Reprokine, RKQ02297)”: the “EC50, ERBB4-PIK3R1 dose-response assay using EGFld as stimulus” value in test [1] (PC12 split TEV assay cells, single culture) was 1 ng/mL.
Take `COC(=O)[C@@H]1CC2=CC(=O)CC[C@]2(C)[C@@]23O[C@@H]2C[C@@]2(C)[C@@H](CC[C@@]24CCC(=O)O4)[C@H]13` [eplerenone]: the “inhibitory effect” value in test [1] is listed as “None of these compounds showed an inhibitory effect”.
Regarding `CS(=O)(=O)CCNCc1ccc(-c2ccc3ncnc(Nc4ccc(OCc5cccc(F)c5)c(Cl)c4)c3c2)o1` [lapatinib, Lapatinib ditosylate], in test [2], the “ERBB4 phosphorylation at Tyr1056 and Tyr1284” value is “completely reverted”. Further, the eIPSC amplitude result in test [3] is reported as “increases”.
In the case of `C[C@]12CCC(=O)C=C1C=C[C@@H]1[C@@H]2CC[C@@]2(C)[C@H]1CC[C@@]21CCC(=O)O1` [canrenone], in test [1], the “inhibitory effect” value is recorded as “None of these compounds showed an inhibitory effect”. For the same molecule, in test [4], the sIPSC amplitude entry is listed as “no significant effect” and the sIPSC frequency entry is “no significant effect”.
